In patent publication US20100221709A1, “METHODS FOR IDENTIFYING AGENTS THAT MODULATE APOPTOSIS IN CELLS THAT OVER-EXPRESS A BCL-2 FAMILY MEMBER PROTEIN” (priority 2005, published 2010):

Assays:
U266 myeloma cells = experiment: [3H]-thymidine incorporation; format: cell-based, human
Procedure: (§1) RPMI-8226 cells were grown in 96 well plates for 24 h prior to addition of 2-methoxy antimycins. Antimycin stocks in dimethyl sulfoxide (DMSO) were serially diluted in RPMI. Cells were incubated for 48 h with compounds at final compound concentrations ranging from 10^−4 to 10^−8 M. MTT cell proliferation assays were performed in quadruplicate and percent growth inhibitions were calculated as (A570 (control cells)-A570 (treated cells))/A570 (control cells). GI50 was extrapolated from semi-log plots of the dose response for each compound. […] After 72 h drug exposures, 1 μCi/ml [^3H]-thymidine was added to wells. Cells were incubated for an additional 24 h, and then transferred to GF/C filter plates (Packard) using a plate washer. Filters were dried, added to scintillant, and counted in a TopCount® scintillation counter (Packard). Drug response is expressed as the percentage of vehicle-treated controls, and each value shown is the average of three determinations.

RPMI-8226 myeloma cells = experiment: [3H]-thymidine incorporation; format: cell-based, human
Procedure: as §1

NCI-H929 myeloma cells = experiment: [3H]-thymidine incorporation; format: cell-based, human
Procedure: as §1

[1] = test system: myeloma cell lines (RPMI-8226, U266, NCI-H929); format: cell-based, human; conditions: 5 to 20 μg/ml
Procedure: Cell survival was assayed by exclusion of propidium iodide (PI) (10 mg/ml) by unfixed cells. Annexin V-FITC (Pharmingen) or 3,3′-dihexyloxacarbocyanine iodide (DiOC6(3)) (Molecular Probes) staining was analyzed together with PI to discriminate early apoptotic cells. Apoptotic cells were also measured as sub-G1 events among ethanol-fixed cells stained with […] PI. All cell samples were analyzed using a benchtop FACSCalibur® (Becton Dickinson, San Jose, Calif.) flow cytometer. Flow data were analyzed using MultiCycle AV software (Phoenix Flow Systems). For intracellular pH measurements, cell pellets were washed once and resuspended in 2 ml of HEPES-buffered medium (no phenol red and no serum). Carboxy-SNARF®-1 acetoxymethyl (AM) ester (Molecular Probes, 1 mM stock in DMSO, stored at −20° C.), a long wavelength fluorescent pH indicator, was added to a final concentration of 10 μM, and the cells were incubated for 30 min at 37° C. Following incubation with SNARF®-1 AM, cells were sedimented and the pellets were held on ice. Immediately before analysis, pellets were resuspended in Earle's balanced salt solution (experimental buffer) or high-[K^+] buffer containing nigericin (calibration samples).

Bcl-xLΔC20 = biological target: T1, Bcl-xLΔC20 (Homo sapiens, UniProt Q07817); experiment: Calcein leakage from large unilamellar vesicles (pore formation); format: biochemical; conditions: 12 μM
T1 construct: poly-His (N); made in house
T1 sequence (Q07817 1-213 limits assumed, stated change not applied): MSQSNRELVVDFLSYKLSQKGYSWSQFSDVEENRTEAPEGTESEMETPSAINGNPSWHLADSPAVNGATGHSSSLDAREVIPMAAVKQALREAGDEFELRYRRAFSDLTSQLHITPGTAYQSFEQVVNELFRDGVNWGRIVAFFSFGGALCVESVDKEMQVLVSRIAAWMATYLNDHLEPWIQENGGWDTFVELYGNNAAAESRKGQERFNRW
Procedure: The Bcl-xL protein has reversible pore-forming activity. Recombinant human Bcl-xL lacking the C-terminal 20-residue membrane anchor sequence, Bcl-xLΔC20, forms pores in large unilamellar vesicles. A reporter, calcein, can leak out of the vesicles through these pores.
Large unilamellar vesicles composed of 60% dioleoylphosphatidylcholine and 40% oleoylphosphatidylglycerol were prepared by the extrusion method of Mayer et al. (Biochim. Biophys. Acta 858:161-168 (1986)). Briefly, a dry film of lipid was resuspended in an aqueous solution containing 40 mM calcein (Molecular Probes, Eugene, Oreg.), 25 mM KCl and 10 mM HEPES (pH 7.0). […] The size of the vesicle suspension was measured by a Coulter N4 Plus-Sizer to confirm that the mean diameter of the vesicle sample was close to the expected size (100 nm). The osmolalities of all solutions were measured in a cryoscopic osmometer (Wescor Inc., Logan, Utah) and adjusted to 0.21 Osmol/kg by the addition of sodium chloride, as necessary. Lipid concentration was measured as described previously (Stewart, Anal. Biochem. 104:10-14 (1989)).
Calcein leakage was determined by adding 2-4 μg of purified Bcl-xLΔC20 (5 μg/ml, 161 nM) to a solution of 100 mM NaCl, 10 mM HEPES (pH 5.0) containing the large unilamellar vesicles (50 μM final lipid concentration) described above. […]

TAMH cells = experiment: Microsequential injection-lab on valve glucose consumption and lactate production; format: cell-based, murine; conditions: 10-100 nM
Procedure: Detailed methods have been previously published (Schulz et al., Analyst 127:1583-1588 (2002)). Cytopore™ beads (Amersham Pharmacia Biotech, Upsala, Sweden) were hydrated in Hanks balanced salt solution (Gibco-BRL, Grand Island, N.Y.) and autoclaved according to manufacturers instructions. Beads were incubated in serum-containing media overnight. TAMH cells were transferred to the bead slurry at an approximate ratio of 50 cells per bead and grown in spinner culture flasks with gentle stirring. Beads were collected for metabolic studies at cell densities of approximately 100-500 cells/bead. For experiments, cell medium was replaced with HBSS. […]
Glucose and lactate concentrations were assayed as substrates in first-order NAD-linked enzymatic reactions, with NADH generation monitored by absorbance at 340 nm. […]
An assay cycle is initiated by packing a column of cells attached to beads in the microbioreactor, which is upstream of the LOV flow cell. […] After the stop flow period, 3 μL of the interstitial fluid from the cell column is injected through to the LOV flow cell previously loaded with glucose or lactate reagent and 340 nm absorbance recorded for 30 s after mixing. Calibration standards were used to convert endpoint absorbance to concentrations. […]

## antimycin A
U266 myeloma cells
  50% growth inhibition (GI50): 0.05 µg/mL
RPMI-8226 myeloma cells
  50% growth inhibition (GI50): 0.1 µg/mL
NCI-H929 myeloma cells
  50% growth inhibition (GI50): 0.2 µg/mL
[1]
  cytotoxicity, PI exclusion: sensitive
Bcl-xLΔC20
  Bcl-xL pore-forming activity: completely blocked
TAMH cells
  glucose uptake and lactate production: increased glucose uptake and lactate production
